# ChEMBL document CHEMBL1150233, “Circumdatin G, a new alkaloid from the fungus Aspergillus ochraceus” (J Nat Prod, 2001)
# Assay: Inhibition of HCV protease
# Set-up: species or system Hepacivirus hominis
row,IC50 [µM],SMILES
1,7.7,CCCC(=O)c1cc2c(c(O)c1C)C(=O)C(=O)c1c(O)cccc1-2
2,35,CC1Cc2cccc(O)c2C(=O)O1 (stereo not drawn) [MELLEIN]

row,SMILES,IC50 [µM]
1,O=C1C=C2C(=CCOC2O)O1 (stereo not drawn) [PATULIN],24.7
